The values that follow come from patent publication US20240391923A1, “METHIONINE ADENOSYLTRANSFERASE 2A INHIBITOR FOR TREATING MTAP DELETION-TYPE CANCER” (SUZHOU GENHOUSE BIO CO., LTD., priority 2022, published 2024).

Assay [1] has as its target MAT2A recombinant protein (Homo sapiens, UniProt P31153). Briefly: MAT2A inhibitory activity (malachite green colorimetric enzyme assay). The format is biochemical. A digest of the protocol: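 Compounds tested over 10 points, 3-fold dilutions, top final concentration 1000 nM. Enzyme reaction: MAT2A, L-methionine, ATP, room temperature, 60 min, in HEPES pH 7.5 buffer with KCl, MgCl2 and DTT; inorganic phosphate read colorimetrically (malachite green, A630). Inhibition vs log concentration fitted for IC50.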

The test system of assay [2] is SDMA in HCT116-MTAP-knockout cell line. Kind of assay: Cell symmetric dimethylarginine (SDMA) test, In-cell Western, HCT116-MTAP-knockout. It is filed as cell-based. The following applies: Homo sapiens, 96 h.
The test system of assay [3] is SDMA in human colon cancer cell line HCT116. Kind of assay: Cell symmetric dimethylarginine (SDMA) test, In-cell Western, HCT116 (MTAP wild-type). The format is cell-based. To be noted: Homo sapiens, HCT-116, 96 h. An outline of the steps: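 SDMA level, an indirect readout of cellular MAT2A inhibition, measured by In-cell Western as background-subtracted 800/700 nm signal against DRAQ5. Cells exposed 4 days to six 1:4-diluted doses from 6 μM; inhibition relative to DMSO, IC50 from sigmoidal fit.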

Assay [4] deals with HCT116-MTAP-knockout (−/−) cell strain. Briefly: Tumor cell proliferation inhibition assay (CellTiter-Glo), HCT116-MTAP-knockout (-/-). It is filed as cell-based. The following applies: Homo sapiens, 120 h, HCT116-MTAP-knockout (−/−) cells, 5-day treatment. A digest of the protocol: (§1)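 Growth inhibition read as ATP content (CellTiter-Glo) after 5-day compound exposure at 37 °C, 5% CO2. Dosing began 24 h post-seeding, ten 3-fold dilutions starting at 10 μM, alongside a DMSO-treated group.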
For orientation: In ATP-based viability assays light output follows the ATP content of the culture.

Assay [5] concerns HCT116-MTAP wild-type (+/+)-cell strain. Briefly: Tumor cell proliferation inhibition assay (CellTiter-Glo), HCT116-MTAP wild-type (+/+). It is filed as cell-based. The following applies: Homo sapiens, 120 h, HCT116-MTAP wild-type (+/+) cells, 5-day treatment. A digest of the protocol:
as §1

In assay [6] the test system is Hut-78 cell strain. Briefly: Tumor cell proliferation inhibition assay (CellTiter-Glo), Hut-78. The format is cell-based. The following applies: Homo sapiens, HuT78, 120 h, Hut-78 cells, 5-day treatment. As to the method:
After the HCT116-MTAP-knockout (−/−) cell strain, the HCT116-MTAP wild-type(+/+)-cell strain, the DOHH-2 cell strain, or the Hut-78 cell strain was treated with the test compound for 5 days, the ATP level was measured using a CellTiter-Glo kit of Promega to evaluate the inhibition of the test compound against the growth of the tumor cell strain.
In the present application, the HCT116-MTAP-knockout (−/−) cell strain, the HCT116-MTAP wild-type (+/+)-cell strain, the DOHH-2 cell strain, or the Hut-78 cell strain was seeded into a 96-well cell culture plate at an appropriate cell density. After 24 h, the cells were treated using the test compounds diluted 1:3 fold at the highest concentration of 10 μM for 10 gradients, and a DMSO treatment group was set up separately. The cells were cultured in a 37° C./5% CO2 incubator for 5 days.

The mark [7] stands for this setting: IC50 score class, read-out: MAT2A Inhibition (score).
Setting [8] is: IC50 score class, read-out: Cell 96 h SDMA Inhibition (HCT116-MTAP−/−) (score).
Setting [9] is: read-out: Cell 96 h SDMA Inhibition (HCT116-MTAP−/−).
[10] abbreviates: IC50 score class, read-out: Cell 96 h SDMA Inhibition (HCT116-MTAP+/+) (score).
Setting [11] is: read-out: Cell 96 h SDMA inhibition (HCT116-MTAP+/+).
Setting [12] is: IC50 score, read-out: Tumor cell 5-day relative growth inhibition (HCT116-MTAP−/−) (nM), score.
Setting [13] is: IC50 value, read-out: Tumor cell 5-day relative growth inhibition (HCT116-MTAP−/−).
Setting [14] is: IC50 score, read-out: Tumor cell 5-day relative growth inhibition (HCT116-MTAP+/+) (nM), score.
Where [15] appears, read: IC50 value, read-out: Tumor cell 5-day relative growth inhibition (HCT116-MTAP+/+).
Setting [16] is: IC50 score, read-out: Tumor cell 5-day relative growth inhibition (Hut-78) (nM), score.
Where [17] appears, read: IC50 value, read-out: Tumor cell 5-day relative growth inhibition (Hut-78).

Read-outs that look alike come from different tables or passages of the source.

Sequence of MAT2A recombinant protein (P31153 whole entry): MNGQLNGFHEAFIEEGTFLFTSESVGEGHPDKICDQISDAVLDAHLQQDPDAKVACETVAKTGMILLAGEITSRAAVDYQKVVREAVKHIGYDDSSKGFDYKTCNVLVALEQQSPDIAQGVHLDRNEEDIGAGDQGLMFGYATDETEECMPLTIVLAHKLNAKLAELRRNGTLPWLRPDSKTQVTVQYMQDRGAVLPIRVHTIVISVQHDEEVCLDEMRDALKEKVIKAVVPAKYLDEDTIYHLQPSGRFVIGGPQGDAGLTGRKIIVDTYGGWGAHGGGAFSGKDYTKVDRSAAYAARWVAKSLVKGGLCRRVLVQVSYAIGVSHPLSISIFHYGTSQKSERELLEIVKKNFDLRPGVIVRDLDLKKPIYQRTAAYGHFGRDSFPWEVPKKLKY

In the case of `O=c1c2nn(C(F)F)cc2c2ccc(Cl)cc2n1-c1cccnc1` [Compound B55], the IC50 is less than 100 nM in assay [1] (setting [7]); 18 nM in assay [1] (read-out: MAT2A Inhibition); less than 200 nM in assay [2] (setting [8]); 118 nM in assay [2] (setting [9]); 1000 to 3000 nM in assay [3] (setting [10]); 1520 nM in assay [3] (setting [11]). In addition, the IC50 is less than 500 nM in assay [4] (setting [12]); 104 nM in assay [4] (setting [13]); not below 2000 nM in assay [5] (setting [14]); 3570 nM in assay [5] (setting [15]); less than 500 nM in assay [6] (setting [16]); 83 nM in assay [6] (setting [17]).
On to `Cc1ncccc1-n1c(=O)c2n[nH]cc2c2ccc(C(F)(F)F)nc21` [Compound B96], for which the IC50 is less than 100 nM in assay [1] (setting [7]); 29.4 nM in assay [1] (read-out: MAT2A Inhibition); less than 200 nM in assay [2] (setting [8]); 5.2 nM in assay [2] (setting [9]); less than 200 nM in assay [3] (setting [10]); 158 nM in assay [3] (setting [11]). In addition, the IC50 in assay [4] (setting [12]) is less than 500 nM; in assay [4] (setting [13]), 5.14 nM; in assay [5] (setting [14]), less than 500 nM; in assay [5] (setting [15]), 293 nM; in assay [6] (setting [16]), less than 500 nM; in assay [6] (setting [17]) it was 27.2 nM.
`Cc1ncccc1-n1c(=O)c2nn(C)c(C)c2c2ccc(C(F)(F)F)nc21` [Compound B189]: the IC50 is less than 100 nM in assay [1] (setting [7]); 39.7 nM in assay [1] (read-out: MAT2A Inhibition); less than 200 nM in assay [2] (setting [8]); 12.3 nM in assay [2] (setting [9]); 200 to 1000 nM in assay [3] (setting [10]); 561 nM in assay [3] (setting [11]). Further, the IC50 in assay [4] (setting [12]) was less than 500 nM; in assay [4] (setting [13]), 13.6 nM; in assay [5] (setting [14]), less than 500 nM; in assay [5] (setting [15]), 488 nM; in assay [6] (setting [16]), less than 500 nM; in assay [6] (setting [17]) it was 49.2 nM.
Regarding `Cc1ncccc1-n1c(=O)c2nn(CC3CC3)cc2c2ccc(C(F)(F)F)nc21` [Compound B191], the IC50 is less than 100 nM in assay [1] (setting [7]); 41 nM in assay [1] (read-out: MAT2A Inhibition); less than 200 nM in assay [2] (setting [8]); 29.3 nM in assay [2] (setting [9]); 1000 to 3000 nM in assay [3] (setting [10]); 1290 nM in assay [3] (setting [11]). For the same compound, the IC50 in assay [4] (setting [12]) is less than 500 nM; in assay [4] (setting [13]), 35.6 nM; in assay [5] (setting [14]), 500 to 2000 nM; in assay [5] (setting [15]), 942 nM; in assay [6] (setting [16]) it was less than 500 nM; in assay [6] (setting [17]), 95.6 nM.
Consider `Cc1ncccc1-n1c(=O)c2nn(C3CC3)cc2c2ccc(Cl)cc21` [Compound B226], for which the IC50 is less than 100 nM in assay [1] (setting [7]); 30.9 nM in assay [1] (read-out: MAT2A Inhibition); less than 200 nM in assay [2] (setting [8]); 16.5 nM in assay [2] (setting [9]); 200 to 1000 nM in assay [3] (setting [10]); 919 nM in assay [3] (setting [11]). Also, the IC50 in assay [5] (setting [14]) is 500 to 2000 nM; in assay [5] (setting [15]), 1030 nM; in assay [6] (setting [16]) it was less than 500 nM; in assay [6] (setting [17]) it was 27.7 nM.
`Cn1cc2c(n1)c(=O)n(-c1cnccn1)c1nc(C(F)(F)F)ccc21` [Compound B227]: the IC50 in assay [1] (setting [7]) was less than 100 nM; in assay [1] (read-out: MAT2A Inhibition) it was 51.8 nM; in assay [2] (setting [8]), more than 3000 nM; in assay [2] (setting [9]), 4690 nM; in assay [3] (setting [10]), more than 3000 nM; in assay [3] (setting [11]), 3030 nM. Besides, the IC50 in assay [5] (setting [14]) is not below 2000 nM; in assay [5] (setting [15]), not below 2000 nM; in assay [6] (setting [16]) it was not below 2000 nM; in assay [6] (setting [17]), 4710 nM.
Take `Cn1cc2c(n1)c(=O)n(-c1ccc(F)c(O)c1)c1nc(C(F)(F)F)ccc21` [Compound B228]: the IC50 in assay [1] (setting [7]) is less than 100 nM; in assay [1] (read-out: MAT2A Inhibition) it was 37.3 nM; in assay [2] (setting [8]), 1000 to 3000 nM; in assay [2] (setting [9]), 2910 nM; in assay [3] (setting [10]), more than 3000 nM; in assay [3] (setting [11]), 3220 nM. Besides, the IC50 in assay [5] (setting [14]) is not below 2000 nM; in assay [5] (setting [15]), more than 2000 nM; in assay [6] (setting [16]), not below 2000 nM; in assay [6] (setting [17]) it was 3450 nM.
